Source: ChEMBL document CHEMBL5665440, “ASAP - In vitro liver microsomal stability” (2024)

Test: Human liver microsomal stability of compound in microsomal protein, PBS buffer pH 7.4, NADPH, glucose-6-phosphate and glucose-6-phosphate dehydrogenase media. Aliquotes were taken at 5 time points and after stopping the reaction, supernatants were analyzed using HPLC coupled with a tandem mass spectrometer. The elimination constant, half-life, and intrinsic clearance are determined as results using linear regression analysis.
Format: ADME, microsomes, Microsome
Settings: for half-life / microsomal CLint: liver microsomes
For Remaining (without cofactor) in this document: time not given here.
For Remaining in this document: time not given here.

| half-life [h] | microsomal CLint [µL/min/mg] | Remaining (microsomes) [%] | Remaining (without cofactor) (microsomes) [%] | T1/2 (microsomes) | Structure (SMILES) |
| --- | --- | --- | --- | --- | --- |
| > 2.89 | < 10 | 100.832 | 95.38 | – | O=C(Nc1cc(Cl)cc(C(=O)Nc2n[nH]c3c2CNC3)c1)OCc1ccccc1 |
| > 2.89 | < 10 | 114.72 | 98.952 | – | CCc1cc(C(=O)Nc2cccc(CN)c2)sc1-c1ccc(Cl)cc1 |
| 0.601 | 46.3 | 46.707 | 96.205 | – | O=C(Nc1cc(Cl)cc([C@H]2CN(Cc3ccccc3)C[C@@H]2c2cccc(-c3nn[nH]n3)c2)c1)OCc1ccccc1 |
| 1.12 | 24.9 | 66.587 | 100.68 | – | CC[C@@H](Cc1nnn[nH]1)c1ccc(NC(=O)c2cc(Cl)cc(NC(=O)OCc3ccccc3)c2)cc1 |
| > 2.89 | < 10 | 101.28 | 99.543 | – | CC(C)c1nc2c(C(=O)Nc3cccc(CN)c3)cccc2[nH]1 |
| 2.44 | 11.4 | 87.168 | 92.769 | – | NCc1cccc([C@@H]2C[C@H]2c2cc(Cl)cc(NC(=O)OCc3ccccc3)c2)c1 |
| > 2.89 | < 10 | 88.403 | 97.11 | – | Cc1ccc(NC(=O)c2cc(Cl)cc(NC(=O)OCc3ccccc3)c2)cc1CN |
| > 2.89 | < 10 | 83.745 | 108.267 | – | Cn1ncc2c(C(=O)Nc3ccc4c(c3)CNC4)cc(Br)cc21 |
| 0.0813 | 343 | 0.295 | 109.106 | – | O=C(O)c1cc(Cl)ccc1NS(=O)(=O)c1ccc(-c2ccccc2Cl)cc1 |
| 2.19 | 12.7 | 81.215 | 98.946 | – | O=C(Nc1cc(Cl)cc(C(=O)Nc2ccc3c(c2)CNC3)c1)OCc1ccccc1 |
| 1.33 | 21 | 124.297 | 104.813 | – | NCc1cccc(NC(=O)c2cc(Cl)cc(CN)c2)c1 |
| 1.31 | 21.3 | 70.065 | 102.307 | – | CNC(=O)[C@H](Nc1cc(Cl)cc(NC(=O)OCc2ccccc2)c1)c1cccc(-c2nn[nH]n2)c1 |
| 0.89 | 31.3 | 58.639 | 103.638 | – | O=C(N[C@H]1[C@H]2CCCCC[C@H]2[C@H]1C(=O)Nc1cccc(C2CCNCC2)c1)OCc1ccccc1 |
| 1.69 | 16 | 78.186 | 103.226 | – | c1ccc2c(CN3CCC(c4c[nH]c5cccnc45)CC3)c[nH]c2c1 |
| 2.6 | 11 | 83 | 101 | – | NCc1cccc(NC(=O)CN(C(=O)OCc2ccccc2)c2ccc(OCc3ccccc3)cc2)c1 |
| > 2.89 | < 10 | 92.268 | 98.779 | – | O=C(Nc1cc(Cl)cc(-c2ccc3[nH]c(C(=O)O)cc3c2)c1)OCc1ccccc1 |
| > 2.89 | < 10 | 89.704 | 102.436 | – | NCc1cc(C(=O)O)cc([C@@H]2C[C@H]2c2cc(Cl)cc(NC(=O)OCc3ccccc3)c2)c1 |
| > 2.89 | < 10 | 89.541 | 103.012 | – | OCC#C[C@H](Nc1ccc2c(c1)CNC2)c1cc(Cl)cc2[nH]ncc12 |
| > 2.89 | < 10 | 91.546 | 107.23 | – | CC(C)NC(=O)[C@H](Nc1ccc2c(c1)CNC2)c1cc(Cl)cc2[nH]ncc12 |
| 0.482 | 57.7 | 39.342 | 94.838 | – | Cc1c(C(=O)Nc2cc([C@H]3CCOC3)ccn2)cc(C2CC2)n1C |
| > 2.89 | < 10 | 101.103 | 100.106 | – | O=C(O)Cn1ncc2cc(-c3cc(Cl)cc(NC(=O)OCc4ccccc4)c3)ccc21 |
| 1.25 | 22.3 | 70.445 | 101.396 | – | Cc1cc(OCc2ccccc2)ccc1NS(=O)(=O)c1ccc(Cl)cc1C(=O)O |
| 2.77 | 10.1 | 84.591 | 100.465 | – | C=CC[C@H](Nc1ccc(-c2nn[nH]n2)cc1)c1cc(Cl)cc(NC(=O)OCc2ccccc2)c1 |
| 1.31 | 21 | 69 | 103 | – | NCc1cccc(NC(=O)c2cc(OCc3ccccc3)ccc2CNC(=O)OCc2ccccc2)c1 |

| half-life [h] | microsomal CLint [µL/min/mg] | Remaining (microsomes) [%] | Remaining (without cofactor) (microsomes) [%] | T1/2 (microsomes) | Structure (SMILES) |
| --- | --- | --- | --- | --- | --- |
| > 2.89 | < 10 | 90.289 | 100.18 | – | CNC(=O)[C@H](Nc1ccc(-c2nnn[nH]2)cc1)c1cc(Cl)cc(C2CC2)c1 |
| 5.26 | 5.29 | 90.368 | 108.836 | – | NCc1cccc(NC(=O)[C@@H](NC(=O)OCc2ccccc2)C2CCCCC2)c1 |
| 0.425 | 65.5 | 34.146 | 93.066 | – | C=CC[C@H](Nc1cccc(-c2nn[nH]n2)c1)c1cc(Cl)cc(NC(=O)OCc2ccccc2)c1 |
| > 2.89 | < 10 | 95.463 | 101.856 | – | CNC(=O)[C@H](Nc1cc(CN)cc(-c2nn[nH]n2)c1)c1cc(Cl)cc(C2CC2)c1 |
| – | – | 0 | 109.308 | Half-life could not be determined | NCc1cc(Cl)cc(C(=O)Nc2ccc3c(c2)CNC3)c1 |
| > 2.89 | < 10 | 93.548 | 99.519 | – | O=C(Nc1cc(Cl)cc([C@H](Nc2cccc(-c3nn[nH]n3)c2)C(=O)NCc2ccccc2)c1)OCc1ccccc1 |
| > 2.89 | < 10 | 98.934 | 109.497 | – | O=C(O)COc1cccc(NC(=O)c2cc(Cl)cc(NC(=O)OCc3ccccc3)c2)c1 |
| 2.48 | 11.2 | 81.771 | 105.363 | – | O=C(Nc1cc(Cl)cc(C(=O)Nc2cccc(-n3nn[nH]c3=O)c2)c1)OCc1ccccc1 |
| 2.04 | 13.6 | 82.243 | 110.789 | – | N#C[C@H](Nc1cccc(-c2nn[nH]n2)c1)c1cc(Cl)cc(NC(=O)OCc2ccccc2)c1 |
| 1.64 | 17 | 76.547 | 105.768 | – | NCc1cccc(NC(=O)C[C@@H](NC(=O)OCc2ccccc2)c2ccc(OCc3ccccc3)cc2)c1 |
| > 2.89 | < 10 | 98.4 | 103.999 | – | CNC(=O)[C@H](Nc1cc(CN)cc(C(=O)O)c1)c1cc(Cl)cc(C2CC2)c1 |
| > 2.89 | < 10 | 98.243 | 100.684 | – | NCc1cccc(NC(=O)c2cccn3cc(CN4CCCC4)nc23)c1 |
| 0.14 | 198 | 4 | 98 | – | CC(C)CNC(=O)c1cc(Cl)c(F)cc1NS(=O)(=O)c1ccc(Oc2ccccc2Cl)cc1 |
| 0.233 | 119 | 15.029 | 93.83 | – | CCOc1cccc(-c2ccc(S(=O)(=O)Nc3ccc(Cl)cc3C(=O)O)cc2)c1 |
| 1.06 | 26.3 | 62.456 | 103.505 | – | O=C(O)c1cc(Cl)ccc1S(=O)(=O)NC1CCN(c2nc(C3CC3)cc(C(F)(F)F)n2)CC1 |
| > 2.89 | < 10 | 88.987 | 100.499 | – | O=C(Nc1cc(Cl)cc(C(=O)Nc2cccc(-c3nnn[nH]3)c2)c1)OCc1ccccc1 |
| 2.33 | 12 | 81.554 | 89.628 | – | N#C[C@H](Nc1cccc(C(=O)O)c1)c1cc(Cl)cc2[nH]ncc12 |
| 0.943 | 29.5 | 62.909 | 101.077 | – | Cc1cc(-c2ccc([C@@H](NC(=O)OCc3ccccc3)C(=O)Nc3cccc(CN)c3)cc2)cs1 |
| 2.21 | 12.6 | 77.895 | 94.537 | – | NCc1cccc(NC(=O)[C@@H](NC(=O)OCc2ccccc2)C(C2CCC2)C2CCC2)c1 |
| > 2.89 | < 10 | 98.893 | 98.069 | – | Clc1ccc2[nH]cc(Cc3ccc(-c4nn[nH]n4)cc3)c2c1 |
| > 2.89 | < 10 | 97.01 | 105.868 | – | CNC(=O)[C@H](Nc1cccc(-c2nn[nH]n2)c1)c1cc(Cl)cc2[nH]ncc12 |
| > 2.89 | < 10 | 93.647 | 102.839 | – | NCc1cccc(NC(=O)c2cc(Cl)cc(NC(=O)OCc3ccccc3)c2)c1 |
| > 2.89 | < 10 | 85.255 | 101.935 | – | O=C(Nc1ccc2c(c1)CNC2)c1cc(Cl)cc2c1CCC2 |
| 0.413 | 67.4 | 33.369 | 97.65 | – | O=C(O)c1cc(Cl)c(F)cc1S(=O)(=O)Nc1ccc(Oc2ccccc2Cl)cc1 |
